From ChEMBL document CHEMBL1149765, “Anti-tumor 12-deoxyphorbol esters from Euphorbia cornigera” (Eur J Med Chem, 2008)
Converted amounts (≈) assume the structure as drawn.

Tests used:
KB [1] = assay: Inhibition of DNA synthesis in human KB cells assessed as ratio of DNA in treated to control cells at 1.0 ug/ml; assay type: functional
KB [2] = assay: Cytotoxicity against human KB cells assessed as viable cells at 2.5 ug/ml by trypan blue exclusion assay; assay type: functional; conditions: read-out: Activity
KB [3] = assay: Cytotoxicity against human KB cells assessed as necrotic cells at 5.0 ug/ml by trypan blue exclusion assay; assay type: functional
KB [4] = assay: Cytotoxicity against human KB cells by MTT assay; assay type: functional, cell-based
KB [5] = assay: Cytotoxicity against human KB cells assessed as viable cells at 1.0 ug/ml by trypan blue exclusion assay; assay type: functional; conditions: read-out: Activity
KB [6] = assay: Cytotoxicity against human KB cells assessed as viable cells at 5.0 ug/ml by trypan blue exclusion assay; assay type: functional; conditions: read-out: Activity
KB [7] = assay: Cytotoxicity against human KB cells assessed as apoptotic cells at 2.5 ug/ml by trypan blue exclusion assay; assay type: functional
KB [8] = assay: Cytotoxicity against human KB cells assessed as necrotic cells at 2.5 ug/ml by trypan blue exclusion assay; assay type: functional
KB [9] = assay: Cytotoxicity against human KB cells assessed as apoptotic cells at 5.0 ug/ml by trypan blue exclusion assay; assay type: functional
KB [10] = assay: Inhibition of DNA synthesis in human KB cells assessed as ratio of DNA in treated to control cells at 2.5 ug/ml; assay type: functional
KB [11] = assay: Cytotoxicity against human KB cells assessed as apoptotic cells at 1.0 ug/ml by trypan blue exclusion assay; assay type: functional
KB [12] = assay: Inhibition of DNA synthesis in human KB cells assessed as 5-bromo-2'-deoxyuridin incorporation at 5.0 ug/ml; assay type: functional
KB [13] = assay: Cytotoxicity against human KB cells assessed as necrotic cells at 1.0 ug/ml by trypan blue exclusion assay; assay type: functional
KB [14] = assay: Inhibition of DNA synthesis in human KB cells assessed as 5-bromo-2'-deoxyuridin incorporation at 2.5 ug/ml; assay type: functional
KB [15] = assay: Cytotoxicity against human KB cells assessed as viable cells at 0.3 ug/ml by trypan blue exclusion assay; assay type: functional; conditions: read-out: Activity
KB [16] = assay: Inhibition of DNA synthesis in human KB cells assessed as 5-bromo-2'-deoxyuridin incorporation at 0.3 ug/ml; assay type: functional
KB [17] = assay: Cytotoxicity against human KB cells assessed as necrotic cells at 0.3 ug/ml by trypan blue exclusion assay; assay type: functional
KB [18] = assay: Inhibition of DNA synthesis in human KB cells assessed as ratio of DNA in treated to control cells at 0.3 ug/ml; assay type: functional
KB [19] = assay: Cytotoxicity against human KB cells assessed as apoptotic cells at 0.3 ug/ml by trypan blue exclusion assay; assay type: functional

**Q.** With CCCCCCCCCC(=O)OCC1=C[C@H]2[C@@H]3C(C)(C)[C@]3(OC(=O)CCCCCCCCC)C[C@@H](C)[C@]2(O)[C@@H]2C=C(C)C(=O)[C@@]2(O)C1 as the compound, how does the Ratio (KB [1]) read?
**A.** The Ratio was 0.57.

**Q.** What about the viability at 2.5 µg/mL (KB [2]) of the same compound?
**A.** The viability at 2.5 µg/mL was 36.7%.

**Q.** And the Activity (KB [3])?
**A.** Its Activity is 6%.

**Q.** And the IC50 (KB [4])?
**A.** The IC50 was 0.5 µg/mL (≈ 0.761 µM).

**Q.** And the viability at 1 µg/mL (KB [5])?
**A.** Its viability at 1 µg/mL is 58.8%.

**Q.** What about the viability at 5 µg/mL (KB [6]) of the same compound?
**A.** Its viability at 5 µg/mL is 15.9%.

**Q.** What about the Activity (KB [7]) of the same compound?
**A.** The Activity was 60.29%.

**Q.** What about the Activity (KB [8]) of the same compound?
**A.** The Activity was 3%.

**Q.** And the Activity (KB [9])?
**A.** Its Activity is 78.13%.

**Q.** What about the Ratio (KB [10]) of the same compound?
**A.** The Ratio was 0.71.

**Q.** What about the Activity (KB [11]) of the same compound?
**A.** Its Activity is 39.24%.

**Q.** What about the inhibition at 5 µg/mL (KB [12]) of the same compound?
**A.** Its inhibition at 5 µg/mL is 27.9%.

**Q.** What about the Activity (KB [13]) of the same compound?
**A.** Its Activity is 2%.

**Q.** And the inhibition at 2.5 µg/mL (KB [14])?
**A.** Its inhibition at 2.5 µg/mL is 86%.

**Q.** Which IC50 (KB [4]) does the source give for C/C=C(\C)C(=O)OCC1=C[C@H]2[C@@H]3C(C)(C)[C@]3(OC(=O)CCCCCCCCC)C[C@@H](C)[C@]2(O)[C@@H]2C=C(C)C(=O)[C@@]2(O)C1 here?
**A.** The IC50 was 7.6 µg/mL (≈ 13 µM).

**Q.** For CCCCCCCCCC(=O)OCC1=C[C@H]2[C@@H]3C(C)(C)[C@]3(OC(=O)CCCCCCC)C[C@@H](C)[C@]2(O)[C@@H]2C=C(C)C(=O)[C@@]2(O)C1, which Ratio (KB [1]) is on record?
**A.** Its Ratio is 0.87.

**Q.** What about the viability at 2.5 µg/mL (KB [2]) of the same compound?
**A.** Its viability at 2.5 µg/mL is 65%.

**Q.** What about the Activity (KB [3]) of the same compound?
**A.** Its Activity is 3%.

**Q.** And the IC50 (KB [4])?
**A.** Its IC50 is 0.8 µg/mL (≈ 1.27 µM).

**Q.** And the viability at 1 µg/mL (KB [5])?
**A.** The viability at 1 µg/mL was 74.7%.

**Q.** And the viability at 5 µg/mL (KB [6])?
**A.** Its viability at 5 µg/mL is 26.1%.

**Q.** And the Activity (KB [7])?
**A.** The Activity was 34%.

**Q.** And the Activity (KB [8])?
**A.** The Activity was 1%.

**Q.** And the Activity (KB [9])?
**A.** The Activity was 70.89%.

**Q.** What about the Ratio (KB [10]) of the same compound?
**A.** Its Ratio is 0.71.

**Q.** And the Activity (KB [11])?
**A.** The Activity was 25.23%.

**Q.** What about the inhibition at 5 µg/mL (KB [12]) of the same compound?
**A.** Its inhibition at 5 µg/mL is 23%.

**Q.** What about the Activity (KB [13]) of the same compound?
**A.** Its Activity is 0%.

**Q.** What about the inhibition at 2.5 µg/mL (KB [14]) of the same compound?
**A.** The inhibition at 2.5 µg/mL was 85%.

**Q.** How did the IC50 (KB [4]) turn out when COc1ccc(C(=O)OCC2=C[C@H]3[C@@H]4C(C)(C)[C@]4(OC(C)=O)C[C@@H](C)[C@]3(O)[C@@H]3C=C(C)C(=O)[C@@]3(O)C2)cc1 was run?
**A.** The IC50 was 8.5 µg/mL (≈ 16.2 µM).

**Q.** How did the Ratio (KB [1]) turn out when CCCCCCCCCCCC(=O)O[C@@]12C[C@@H](C)[C@@]3(O)[C@@H](C=C(COC(=O)CCCCCCCCC)C[C@]4(O)C(=O)C(C)=C[C@@H]34)[C@@H]1C2(C)C was run?
**A.** Its Ratio is 0.47.

**Q.** And the viability at 2.5 µg/mL (KB [2])?
**A.** The viability at 2.5 µg/mL was 46.7%.

**Q.** What about the Activity (KB [3]) of the same compound?
**A.** Its Activity is 2%.

**Q.** And the IC50 (KB [4])?
**A.** The IC50 was 1 µg/mL (≈ 1.46 µM).

**Q.** What about the viability at 1 µg/mL (KB [5]) of the same compound?
**A.** Its viability at 1 µg/mL is 78.8%.

**Q.** And the viability at 5 µg/mL (KB [6])?
**A.** Its viability at 5 µg/mL is 27.9%.

**Q.** And the Activity (KB [7])?
**A.** The Activity was 52.23%.

**Q.** And the Activity (KB [8])?
**A.** Its Activity is 1%.

**Q.** What about the Activity (KB [9]) of the same compound?
**A.** Its Activity is 70.13%.

**Q.** And the Ratio (KB [10])?
**A.** The Ratio was 0.51.

**Q.** What about the Activity (KB [11]) of the same compound?
**A.** The Activity was 11.24%.

**Q.** And the inhibition at 5 µg/mL (KB [12])?
**A.** Its inhibition at 5 µg/mL is 25.9%.

**Q.** And the Activity (KB [13])?
**A.** The Activity was 0%.

**Q.** And the inhibition at 2.5 µg/mL (KB [14])?
**A.** The inhibition at 2.5 µg/mL was 76%.

**Q.** For CCCCCCCCCC(=O)OCC1=C[C@H]2[C@@H]3C(C)(C)[C@]3(OC(=O)CCCCC)C[C@@H](C)[C@]2(O)[C@@H]2C=C(C)C(=O)[C@@]2(O)C1, which IC50 (KB [4]) is on record?
**A.** The IC50 was 7.2 µg/mL (≈ 12 µM).

**Q.** How did the IC50 (KB [4]) turn out when C/C=C(/C)C(=O)OCC1=C[C@H]2[C@@H]3C(C)(C)[C@]3(OC(=O)CCCCCCCCC)C[C@@H](C)[C@]2(O)[C@@H]2C=C(C)C(=O)[C@@]2(O)C1 was run?
**A.** The IC50 was 6.4 µg/mL (≈ 10.9 µM).

**Q.** CCCCCCCCCC(=O)OCC1=C[C@H]2[C@@H]3C(C)(C)[C@]3(OC(=O)CCC)C[C@@H](C)[C@]2(O)[C@@H]2C=C(C)C(=O)[C@@]2(O)C1 was tested. Which IC50 (KB [4]) did it give?
**A.** The IC50 was 7.8 µg/mL (≈ 13.6 µM).

**Q.** For CCCCCCCCCC(=O)OCC1=C[C@H]2[C@@H]3C(C)(C)[C@]3(OC(C)=O)C[C@@H](C)[C@]2(O)[C@@H]2C=C(C)C(=O)[C@@]2(O)C1, which IC50 (KB [4]) is on record?
**A.** The IC50 was 8.5 µg/mL (≈ 15.6 µM).

**Q.** With CC(=O)O[C@@]12C[C@@H](C)[C@@]3(O)[C@@H](C=C(COC(=O)c4ccccc4)C[C@]4(O)C(=O)C(C)=C[C@@H]34)[C@@H]1C2(C)C as the compound, how does the IC50 (KB [4]) read?
**A.** Its IC50 is 8.2 µg/mL (≈ 16.6 µM).

**Q.** With COc1cccc2c1C(=O)c1c(O)c3c(c(O)c1C2=O)C[C@@](O)(C(=O)CO)C[C@@H]3O[C@H]1C[C@H](N)[C@H](O)[C@H](C)O1.Cl [DOXORUBICIN HYDROCHLORIDE] as the compound, how does the IC50 (KB [4]) read?
**A.** Its IC50 is 10 µg/mL.

**Q.** What does the source list for COc1cccc2c1C(=O)c1c(O)c3c(c(O)c1C2=O)C[C@@](O)(C(=O)CO)C[C@@H]3O[C@H]1C[C@H](N)[C@H](O)[C@H](C)O1 [DOXORUBICIN]?
**A.** viability at 0.3 µg/mL (KB [15]): 37.7%; inhibition at 0.3 µg/mL (KB [16]): 37.7%; Activity (KB [17]): 1%; Ratio (KB [18]): 0.57; Activity (KB [19]): 61.33%

**Q.** For CC(=O)O[C@@]12C[C@@H](C)[C@@]3(O)[C@@H](C=C(CO)C[C@]4(O)C(=O)C(C)=C[C@@H]34)[C@@H]1C2(C)C [PROSTRATIN], which IC50 (KB [4]) is on record?
**A.** Its IC50 is 1000 µg/mL (≈ 2560 µM).
